Measurements reported in PubChem BioAssay AID248 (DTP/NCI, 2004).
Several values for one entry are separate records, joined by “and”; a condition that tells them apart may be missing. Equal entries are not always repeated. Inconclusive results and toxic doses are left out. Rule as the data show it: active = T/C of 150% or more; inactive = T/C below 125%.

Test system: L1210 leukemia ip in BDF1 mice, survival T/C
Experiment: NCI In Vivo Anticancer Drug Screen. Data for tumor model L1210 Leukemia (intraperitoneal) in B6D2F1 (BDF1) mice
Conditions: endpoint: mean survival time, higher = longer survival
Summary of the method: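 Tumor was transplanted into mice, which were then dosed with test compound or vehicle alone. Survival was recorded for each group, and the treated figure was expressed relative to the control figure.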

[1] = dose: 50.0 mg/kg/injection, schedule: Q01DX001 (ip), vehicle: saline with Tween-80
[2] = dose: 100.0 mg/kg/injection, schedule: Q01DX001 (ip), vehicle: saline with Tween-80
[3] = dose: 200.0 mg/kg/injection, schedule: Q01DX001 (ip), vehicle: saline
[4] = dose: 25.0 mg/kg/injection, schedule: Q04DX002 (ip), vehicle: Klucel (hydroxypropylcellulose) (HPC)
[5] = dose: 50.0 mg/kg/injection, schedule: Q04DX002 (ip), vehicle: Klucel (hydroxypropylcellulose) (HPC)
[6] = dose: 100.0 mg/kg/injection, schedule: Q04DX002 (ip), vehicle: Klucel (hydroxypropylcellulose) (HPC)
[7] = dose: 200.0 mg/kg/injection, schedule: Q04DX002 (ip), vehicle: Klucel (hydroxypropylcellulose) (HPC)
[8] = dose: 50.0 mg/kg/injection, schedule: Q01DX009 (ip), vehicle: Klucel (hydroxypropylcellulose) (HPC)
[9] = dose: 100.0 mg/kg/injection, schedule: Q01DX001 (ip), vehicle: saline
[10] = dose: 100.0 mg/kg/injection, schedule: Q01DX009 (ip), vehicle: Klucel (hydroxypropylcellulose) (HPC)
[11] = dose: 200.0 mg/kg/injection, schedule: Q01DX009 (ip), vehicle: Klucel (hydroxypropylcellulose) (HPC)
[12] = dose: 400.0 mg/kg/injection, schedule: Q01DX001 (ip), vehicle: saline
[13] = dose: 100.0 mg/kg/injection, schedule: Q01DX001 (ip), vehicle: carboxymethylcellulose (CMC)
[14] = dose: 200.0 mg/kg/injection, schedule: Q01DX001 (ip), vehicle: carboxymethylcellulose (CMC)
[15] = dose: 400.0 mg/kg/injection, schedule: Q01DX001 (ip), vehicle: carboxymethylcellulose (CMC)
[16] = dose: 12.5 mg/kg/injection, schedule: Q01DX009 (ip), vehicle: Klucel (hydroxypropylcellulose) (HPC)
[17] = dose: 25.0 mg/kg/injection, schedule: Q01DX009 (ip), vehicle: Klucel (hydroxypropylcellulose) (HPC)
[18] = dose: 50.0 mg/kg/injection, schedule: Q04DX003 (ip), vehicle: Klucel (hydroxypropylcellulose) (HPC)
[19] = dose: 100.0 mg/kg/injection, schedule: Q04DX003 (ip), vehicle: Klucel (hydroxypropylcellulose) (HPC)
[20] = dose: 200.0 mg/kg/injection, schedule: Q04DX003 (ip), vehicle: Klucel (hydroxypropylcellulose) (HPC)
[21] = dose: 400.0 mg/kg/injection, schedule: Q04DX003 (ip), vehicle: Klucel (hydroxypropylcellulose) (HPC)

Measured: T/C

Cc1cc(C)c2c(C#N)cn(-c3cccc([N+](=O)[O-])c3)c2n1
inactive: [1] 98 % of control | [2] 103 % of control | dose: 200.0 mg/kg/injection, schedule: Q01DX001 (ip), vehicle: saline with Tween-80 95 % of control | [3] 87 % of control

Cc1no[n+]([O-])c1-c1nc(SCC(=O)NN)n[nH]1
inactive: [4] 91 % of control | [5] 95 % of control | [6] 102 % of control

O=C1OCC/C1=C\NCCCCCCCCN/C=C1\CCOC1=O
inactive: [6] 97 % of control | [7] 108 % of control | dose: 400.0 mg/kg/injection, schedule: Q04DX002 (ip), vehicle: Klucel (hydroxypropylcellulose) (HPC) 97 % of control

CCN1C(=O)c2ccccc2C1=O
inactive: [8] 107 % of control | [9] 96 % of control | [10] 94 % of control | [3] 98 % of control | [11] 89 % of control | [12] 88 % of control

C/C(C/C(C)=N/O)=N/O.C/C(C/C(C)=N/O)=N\O.[Cl][Rh][Cl]
inactive: dose: 25.0 mg/kg/injection, schedule: Q01DX009 (ip), vehicle: water 100 % of control | dose: 50.0 mg/kg/injection, schedule: Q01DX009 (ip), vehicle: water 97 % of control | dose: 100.0 mg/kg/injection, schedule: Q01DX009 (ip), vehicle: water 97 % of control | dose: 200.0 mg/kg/injection, schedule: Q01DX009 (ip), vehicle: water 100 % of control | dose: 400.0 mg/kg/injection, schedule: Q01DX009 (ip), vehicle: water 94 % of control

C1=CC2CC1C1CSCC21 (configuration not stated)
inactive: dose: 0.34 mg/kg/injection, schedule: Q01DX009 (ip), vehicle: saline 102 % of control | dose: 0.51 mg/kg/injection, schedule: Q01DX009 (ip), vehicle: saline 107 % of control | dose: 0.78 mg/kg/injection, schedule: Q01DX009 (ip), vehicle: saline 98 % of control | dose: 1.56 mg/kg/injection, schedule: Q04DX003 (ip), vehicle: saline 97 % of control | dose: 3.12 mg/kg/injection, schedule: Q04DX003 (ip), vehicle: saline 94 % of control

COC1C(COC(C)=O)OC(n2cnc3c(=S)nc[nH]c32)C1OC(C)=O (configuration not stated)
inactive: [13] 114 % of control | [14] 104 % of control | [15] 111 % of control

c1ccc(CSC(Cc2ccccc2)(SCc2ccccc2)c2ccccc2)cc1
inactive: dose: 50.0 mg/kg/injection, schedule: Q01DX001 (ip), vehicle: saline 102 % of control | [9] 104 % of control | [3] 98 % of control | [12] 104 % of control

Cc1cc(CCl)c(C)c(Br)c1C
inactive: dose: 6.25 mg/kg/injection, schedule: Q01DX009 (ip), vehicle: Klucel (hydroxypropylcellulose) (HPC) 95 % of control | [16] 90 % of control | [17] 89 % of control | [8] 92 % of control

Oc1ccc(/C=N\Nc2ccccn2)c(O)c1
inactive: [10] 88 % of control | [11] 91 % of control

Nc1nc(=O)[nH]c(N)c1N
inactive: dose: 50.0 mg/kg/injection, schedule: Q04DX003 (ip), vehicle: saline 91 % of control | [9] 98 % of control | dose: 100.0 mg/kg/injection, schedule: Q04DX003 (ip), vehicle: saline 91 % of control | [3] 114 % of control | dose: 200.0 mg/kg/injection, schedule: Q04DX003 (ip), vehicle: saline 88 % of control

O=[N+]([O-])c1ccc(S(=O)C2CCCCC2Cl)c([N+](=O)[O-])c1 (configuration not stated)
inactive: [10] 111 % of control

CCOC(=O)NCC[N+](C)(C)C
inactive: dose: 6.25 mg/kg/injection, schedule: Q01DX009 (ip), vehicle: saline 94 % of control | dose: 12.5 mg/kg/injection, schedule: Q01DX009 (ip), vehicle: saline 100 % of control | dose: 25.0 mg/kg/injection, schedule: Q01DX009 (ip), vehicle: saline 102 % of control

CCN=C(N)CSS(=O)(=O)O
inactive: [4] 100 % of control | [5] 97 % of control | [6] 95 % of control and 110 % of control

O=[N+]([O-])c1ccc(N/N=C/c2ccc(N(CCO)CCO)cc2)c([N+](=O)[O-])c1
inactive: dose: 25.0 mg/kg/injection, schedule: Q01DX001 (ip), vehicle: saline with Tween-80 88 % of control | [1] 90 % of control | [2] 98 % of control

NC1CCCCC1.[O]=[Cr](=[O])([OH])[OH]
inactive: dose: 12.5 mg/kg/injection, schedule: Q01DX009 (ip), vehicle: saline sonified 100 % of control | dose: 25.0 mg/kg/injection, schedule: Q01DX009 (ip), vehicle: saline sonified 109 % of control | [18] 102 % of control | dose: 75.0 mg/kg/injection, schedule: Q01DX001 (ip), vehicle: saline 98 % of control

C[N+]12CCCc3cc(CO)cc(c31)CCC2
inactive: [16] 101 % of control | dose: 12.5 mg/kg/injection, schedule: Q04DX003 (ip), vehicle: Klucel (hydroxypropylcellulose) (HPC) 97 % of control | [17] 105 % of control | dose: 25.0 mg/kg/injection, schedule: Q04DX003 (ip), vehicle: Klucel (hydroxypropylcellulose) (HPC) 92 % of control | [18] 97 % of control

CCCCCCC(/C=N\NC(=O)c1cccc2ccccc12)=C\c1ccccc1
inactive: [3] 97 % of control

COC12C(CC3C4CC=C5CC(OC(C)=O)CCC5(C)C4CCC31C)C(c1ccccc1)=NN2c1ccccc1 (configuration not stated)
inactive: dose: 12.5 mg/kg/injection, schedule: Q04DX002 (ip), vehicle: Klucel (hydroxypropylcellulose) (HPC) 101 % of control | [4] 104 % of control | [5] 101 % of control

CC(=O)Cc1cc(C)nc(/N=C(\N)Nc2ccccc2)n1
inactive: [6] 93 % of control | [7] 104 % of control

CCOc1ccc(N)c(S)c1
inactive: dose: 13.3 mg/kg/injection, schedule: Q01DX Z (ip), vehicle: methylcellulose (MC) 105 % of control | dose: 20.0 mg/kg/injection, schedule: Q01DX Z (ip), vehicle: methylcellulose (MC) 97 % of control | dose: 30.0 mg/kg/injection, schedule: Q01DX Z (ip), vehicle: methylcellulose (MC) 95 % of control

CCCCCCCCCCCCCCCCC(=O)CC
inactive: [19] 96 % of control | [20] 91 % of control | [21] 92 % of control

CC(O)c1ccc(Cl)c(Cl)c1 (configuration not stated)
inactive: [10] 91 % of control | [19] 98 % of control | [11] 90 % of control | [20] 109 % of control | dose: 400.0 mg/kg/injection, schedule: Q01DX009 (ip), vehicle: Klucel (hydroxypropylcellulose) (HPC) 101 % of control | [21] 104 % of control

Nc1c(Cl)c(Cl)c2c(c1Cl)C(O)c1cc(Cl)ccc1-2 (configuration not stated)
inactive: [13] 89 % of control | [14] 95 % of control | [15] 93 % of control

CSc1ccccc1C[P+](c1ccccc1)(c1ccccc1)c1ccccc1
inactive: dose: 1.56 mg/kg/injection, schedule: Q01DX009 (ip), vehicle: saline with Tween-80 102 % of control | dose: 3.13 mg/kg/injection, schedule: Q01DX009 (ip), vehicle: saline with Tween-80 103 % of control | dose: 6.25 mg/kg/injection, schedule: Q01DX009 (ip), vehicle: saline with Tween-80 105 % of control
